Results reported in PubChem BioAssay AID1996.
Converted amounts (≈) assume the structure as drawn.

Conditions: buffer; pH 7.4; 200.0 µM

| Structure (SMILES) | solubility kinetic [µg/mL] |
| --- | --- |
| Cc1ccc(NC(=O)CN(CCc2ccccc2)S(C)(=O)=O)cc1 | 51.6 (≈ 149 µM) |
| O=C(CN1C(=O)C(=O)c2ccccc21)NCCc1ccccc1 | 43.1 (≈ 140 µM) |
| COC(=O)C(C)Oc1ccc(Cl)c(CN2OCC(C)(C)C2=O)c1 (centres undefined) | > 51.3 |
| O=C(COC(=O)c1c(F)cccc1Cl)NC1CCCCC1 | > 47.1 |
| N=c1oc2cc(O)ccc2cc1C(=O)Nc1ccc(Cl)cc1 | 1.1 (≈ 3.5 µM) |
| CN(c1ccc(OCC(=O)Nc2ccccc2C(=O)O)cc1)S(=O)(=O)c1ccc(Cl)cc1 | > 71.2 |
| Cc1ccc(N2C(=O)SC(Cc3ccccc3)C2=O)cc1 (centres undefined) | 0.8 (≈ 2.69 µM) |
| CCCNC(=O)C12CCC(C)(C(=O)O1)C2(C)C (centres undefined) | > 35.9 |
| O=C(Nc1ccccc1)c1cc([N+](=O)[O-])ccc1N1CCCCC1 | 1.7 (≈ 5.22 µM) |
| Cc1ccc(C(C)C)c(Oc2cnccn2)c1 | 4.3 (≈ 18.8 µM) |
| CC1CCCC(NC(=O)c2cccs2)C1C (centres undefined) | 23 (≈ 96.9 µM) |
| O=C(Nc1ccc(CN2CCOCC2)cc1)c1ccc(Cl)cc1 | 9.2 (≈ 27.8 µM) |
| COc1ccc(NC(=O)C2CCCN(C(=O)Nc3ccc(F)cc3)C2)cc1 (centres undefined) | 12.4 (≈ 33.4 µM) |
| CCCCC1CN2CCc3c([nH]c4ccccc34)C2(C)C1.Cl (centres undefined) | 27.7 |
| Cc1ccc(-n2c(C)c(C)c3c(NCCN(C)C)ncnc32)cc1 | 37.4 (≈ 116 µM) |
| COCC(C)NC(=S)Nc1ccccc1[N+](=O)[O-] (centres undefined) | > 40.4 |
| CC1CCN(CC(O)COc2ccc(C(=O)c3ccccc3)cc2)CC1 (centres undefined) | > 53 |
| CCCC/C(O)=C1\C(=O)CC(C)(C)CC1=NCCCCCC(=O)O | > 50.6 |
| O=C(NCCN1CCOCC1)c1ccccc1Cl | > 40.3 |
| O=C(O)c1ccccc1NS(=O)(=O)c1cccc(NS(=O)(=O)c2cc(Br)ccc2Br)c1 | > 88.5 |

| Structure (SMILES) | solubility kinetic [µg/mL] |
| --- | --- |
| CC(=O)c1cnc(-c2ccccc2Cl)s1 | 8 (≈ 33.7 µM) |
| CN1C(=O)[C@H](Cc2ccc([N+](=O)[O-])cc2)NC1=S | 28.1 (≈ 106 µM) |
| O=C(CCl)Nc1ccc(S(=O)(=O)Nc2nccs2)cc1 | 34 (≈ 102 µM) |
| FC(F)(F)c1nc(=S)c2ccccc2[nH]1 | 34.5 (≈ 150 µM) |
| COc1cccc(/C=C2\NC(=O)NC2=O)c1O | 32.6 (≈ 139 µM) |
| Cc1ccc(C(=O)NCC(=O)N2CCCN(C)CC2)cc1C | > 45.5 |
| Cc1cc(NC(=O)Cc2ccc(Br)cc2)no1 | 1.8 (≈ 6.1 µM) |
| CCN(CC)CCCN=Cc1c(O)n(-c2cccc(C)c2)c(=O)c2ccccc12 | > 58.7 |
| CCCC(=O)c1c[nH]c(C(=O)NCc2cccnc2)c1 | 18.1 (≈ 66.7 µM) |
| COc1ccc(S(=O)(=O)N2CCN(C(=O)N(C)C)C2C)cc1 (centres undefined) | > 49.1 |
| CN1CCC(OC(=O)COc2ccc(F)cc2)CC1.Cl | > 45.6 |
| COC(=O)c1ccccc1Oc1ccc(NC(=O)c2ccco2)cc1 | 49.6 (≈ 147 µM) |
| CN(C(=O)c1ccncc1)C1CCCCC1 | > 32.7 |
| Cc1coc2cc3oc(=O)c(CCC(=O)NC4CC4)c(C)c3cc12 | 16.7 (≈ 51.3 µM) |
| CC(NC(=O)C1=CC=CN2CCS(=O)(=O)N=C12)c1ccc(Cl)c(Cl)c1 (centres undefined) | > 60 |
| N/C(=N\O)c1ccc(Oc2ccccc2Cl)c([N+](=O)[O-])c1 | 44.1 (≈ 143 µM) |
| O=C(c1c(F)cccc1F)N1CCC(O)(c2ccc(F)cc2)CC1 | 49 (≈ 146 µM) |
| CCOc1ccc(C2C3=C(CCCC3=O)OC(N)=C2[N+](=O)[O-])cc1 (centres undefined) | > 49.6 |
| COC(=O)/C=C1\SC(=NC(=O)c2ccc(C)cc2)NC1=O | 44.5 (≈ 146 µM) |
| Cc1cc(S(=O)(=O)Nc2cccc(Cl)c2)c(C)s1 | 37.4 (≈ 124 µM) |

| Structure (SMILES) | solubility kinetic [µg/mL] |
| --- | --- |
| CN(C)c1ccc(/C=C2\C(=O)NC(=O)N(CCc3ccc(F)cc3)C2=O)cc1 | 11.2 (≈ 29.4 µM) |
| COc1ccc(-c2cn(-c3ccccc3)c(=S)[nH]2)cc1OC | 22.6 (≈ 72.3 µM) |
| CC(=O)c1ccc(-c2ccc(C(=O)NC3CCCCCC3)o2)cc1 | 6.7 (≈ 20.6 µM) |
| CCOC(=O)NC(=O)c1cn(CCNCCO)c(=O)[nH]c1=O | > 47.1 |
| COc1ccc(NS(=O)(=O)c2cccc(C(=O)OCC(=O)NC3CC3)c2)cc1 | 11.6 (≈ 28.7 µM) |
| O=C(O)c1ccccc1C(=O)Nc1ccc(Oc2cccc(C(F)(F)F)c2)nc1 | 60.2 (≈ 150 µM) |
| O=C(NC(=S)Nc1ccccc1)c1cccs1 | 1.4 (≈ 5.34 µM) |
| O=S(=O)(c1c(Cl)cc(Br)cc1Cl)N1CCN(C(=S)NC2CC2)CC1 | 5.3 (≈ 11.2 µM) |
| COc1ccccc1CNCC(c1ccccc1)c1ccccc1 | 33.6 (≈ 106 µM) |
| O=C(NC(Cc1ccc(O)cc1)C(=O)O)c1ccco1 (centres undefined) | > 41.3 |
| O=S(=O)(/N=C(/c1ccccc1)N1CCOCC1)c1ccc(F)cc1F | > 55 |
| CC(C)c1ccc(OCC(=O)Nc2ccc3oc(=O)ccc3c2)cc1 | < 0.7 |
| Cc1cc(C)c(NC(=O)COC(=O)C2CCC(=O)N2)c(C)c1 (centres undefined) | > 45.7 |
| COc1c(N2CCN[C@H](C)C2)c(F)cc2c(=O)c(C(=O)O)cn(C3CC3)c12 | 38.6 (≈ 103 µM) |
| CCc1ccccc1NC(=O)COc1ccc2c(c1)OCO2 | 41.4 (≈ 138 µM) |
| O=C(/C=C/c1ccc(Cl)cc1)Nc1nccs1 | 1.1 (≈ 4.16 µM) |
| N/C(=N\OC(=O)C1CC1)c1ccc([N+](=O)[O-])s1 | 26.4 (≈ 103 µM) |
| O=C(CSc1n[nH]c(=O)n1C1CC1)NCc1ccccc1Cl | > 50.8 |
| O=C(c1ccc(-c2cc(Cl)ccc2Cl)o1)N1CCOCC1 | 11.3 (≈ 34.6 µM) |
